Data: US4450160A, “1,2-Dihydropyrido[3,4-b]-pyrazines and method and intermediates for preparing same” (Southern Research Institute, priority 1982, dated 1984)

Key:
[1] = system: Lymphocytic leukemia P388; assay: P388 lymphocytic leukemia, 10^6 tumor cell implant, i.p., % ILS; assay type: in vivo, mice
Source text: (d) Lymphocytic leukemia p388. Geran, R. I., Greenberg, N. H., MacDonald,
M. M., Schulacker, A. M., Abott, B. J., Cancer Chemother. Rep., 1972, Par

[2] = system: lymphoid leukemia L1210 cells; assay: inhibition of proliferation of cultured lymphoid leukemia L1210 cells; assay type: cell-based; settings: Mus musculus, concentration that inhibits proliferation to 50% of control growth, 24 hours, (g) = average of 2 determinations, read-out: L1210 ID50
Source text: (b) Concentration of agent that inhibits proliferation of cultured lymphoi
leukemia L1210 cells to 50% control growth.

[3] = system: cultured lymphoid leukemia L1210 cells; assay: Mitotic Index, fraction of cultured L1210 cells in mitoses (metaphase); assay type: cell-based
[4] = system: KB cell culture; settings: abstract, Gatlinburg 1976; cited from earlier work
[5] = system: leukemia L1210; settings: mouse, in vivo; cited from earlier work
[6] = system: P388 cells that were resistant to vincristine; assay: vincristine-resistant line of P388 in mice; assay type: in vivo
Source text: (h) Vincristineresistant line of P388. Wilkoff, L. J. and Dulmadge, E. A.,

[7] = system: Penicillium italicum; assay: antifungal activity; assay type: cell-based
Protocol: (§1) The 1,2-dihydropyrido[3,4-b]pyrazines at concentrations that prevented any increase in the cell number during a 24 hour period had little effect upon the synthesis of DNA, RNA, and protein by cultured L1210 cells during exposure for four hours. […] Exposure of cultured L1210 cells to the 1,2-dihydropyrido[3,4-b]pyrazines inhibited cell division as measured by the mitotic index (MI) (Table V), which is the fraction of the cell population that is made up of metaphase cells. […] For example, 5-amino-1,2-dihydro-3-phenylpyrido[3,4-b]pyrazin-7-ylcarbamate was active against Saccharomyces cerevisiae, Asperigillus niger, Penicillium italicum and Botrytis cinereae.

[8] = system: Saccharomyces cerevisiae; assay: antifungal activity; assay type: cell-based
Protocol: as §1

[9] = system: Asperigillus niger; assay: antifungal activity; assay type: cell-based
Protocol: as §1

[10] = system: Botrytis cinereae; assay: antifungal activity; assay type: cell-based
Protocol: as §1

[11] = Mus musculus, P388, ip, i.p. implant, days 1-5
[12] = Mus musculus, P388, ip, 24 h, i.p. implant, day 1
[13] = Mus musculus, P388, ip, i.p. implant, days 1-9
[14] = Mus musculus, P388, ip, i.p. implant, days 1-5, 10 mg/kg

`CC[C@]1(O)C[C@H]2CN(CCc3c([nH]c4ccccc34)[C@@](C(=O)OC)(c3cc4c(cc3OC)N(C=O)[C@H]3[C@@](O)(C(=O)OC)[C@H](OC(C)=O)[C@]5(CC)C=CCN6CC[C@]43[C@@H]65)C2)C1` [Vincristine, reference compound] gave an ILS at 2.7 mg/kg ([1]; Mus musculus, P388, ip, 24 h, i.p. implant, day 1, 2.7 mg/kg) of 100%, an ILS at 1.3 mg/kg ([1]; Mus musculus, P388, ip, i.p. implant, days 1,5,9, 1.3 mg/kg) of 181% and an ILS at 0.33 mg/kg ([1]; Mus musculus, P388, ip, i.p. implant, days 1-9, 0.33 mg/kg) of 145%. The 40th-day survivors ([1]; day 1, 2.7 mg/kg) was “Two”, the 40th-day survivors ([1]; days 1,5,9, 1.3 mg/kg) was “Three” and the 40th-day survivors ([1]; days 1-9, 0.33 mg/kg) was “Three”. It also gave an IC50 [2] of under 1 nM.

For `CCOC(=O)Nc1cc2c(c(N)n1)N=C(c1ccc(F)cc1)CN2` [4-FC6 H4], the ILS at 3 mg/kg [1, 11] was 49%, the IC50 [2] was 6.8 nM and the “Mitotic Index 12h” value ([3]; 0.01 μM) was 0.47.

In the case of `CCOC(=O)Nc1cc2c(c(N)n1)N=C(c1ccccc1)CN2C` [C6 H5, R3 = CH3], the ILS at 100 mg/kg ([1]; Mus musculus, P388, ip, 24 h, i.p. implant, day 1, 100 mg/kg) is reported as 12%, the IC50 [2] is reported as 160 nM and the “Mitotic Index 12h” value ([3]; 0.3 μM) is reported as 0.68.

With `CCOC(=O)Nc1cc2c(c(N)n1)N=C(c1cccc(OC)c1)CN2` [3-CH3 OC6 H4] the IC50 [2] was 1.22 nM and the “Mitotic Index 12h” value ([3]; 0.003 μM) was 0.56.

With `CCOC(=O)Nc1cc2c(c(N)n1)N=C(c1ccc(C)cc1C)CN2` [2,4-(CH3)2 C6 H3] the ILS at 20 mg/kg ([1]; Mus musculus, P388, ip, i.p. implant, days 1-5, 20 mg/kg (highest dose tested)) was 23%, the IC50 [2] was 42 nM and the “Mitotic Index 12h” value ([3]; 0.1 μM) was 0.66.

Compound `CCOC(=O)Nc1cc2c(c(N)n1)N=C(c1ccc(OC)cc1)CN2` [4-CH3 OC6 H4] has an ILS at 25 mg/kg [1, 12] of 50%, an ILS at 25 mg/kg ([1]; Mus musculus, P388, ip, i.p. implant, days 1,5,9) of 63% and an ILS at 3 mg/kg [1, 13] of 35%. The IC50 [2] was 4.1 nM and the “Mitotic Index 24h” value ([3]; 0.3 μM) was 0.27.

In the case of `CCOC(=O)Nc1cc2c(c(N)n1)N=C(c1cc(OC)c(OC)c(OC)c1)CN2` [3,4,5-(CH3 O)3 C6 H2], the “Mitotic Index 12h” value ([3]; 0.3 μM) is reported as 0.41.

In the case of `CCOC(=O)Nc1cc2c(c(N)n1)N=C(c1ccc(Cl)cc1Cl)CN2` [2,4-Cl2 C6 H3], the ILS at 12.5 mg/kg [1, 11] is reported as 49%, the IC50 [2] is reported as 44 nM and the “Mitotic Index 24h” value ([3]; 0.3 μM) is reported as 0.20.

In the case of `CCOC(=O)Nc1cc2c(c(N)n1)N=C(CN(C)c1ccc(C(=O)OC)cc1)CN2`, the “cytotoxicity in the KB cell culture screen” value [4] is listed as “showed cytotoxicity” and the “activity against leukemia L1210 in mice” value [5] is listed as “activity against leukemia L1210 in mice”.

With `CCOC(=O)Nc1cc2c(c(N)n1)N=C(c1ccc(C)cc1)CN2` [4-CH3 C6 H4] the ILS at 12 mg/kg ([1]; Mus musculus, P388, ip, i.p. implant, days 1-5, 12 mg/kg) was 30%, the IC50 [2] was 24 nM and the “Mitotic Index 24h” value ([3]; 0.3 μM) was 0.22.

With `CCOC(=O)Nc1cc2c(c(N)n1)N=C(c1ccc(N)cc1)CN2` [4-H2 NC6 H4] the ILS at 50 mg/kg [1, 12] was 35%, the IC50 [2] was 23 nM and the “Mitotic Index 24h” value ([3]; 0.3 μM) was 0.19.

In the case of `CCOC(=O)Nc1cc2c(c(N)n1)N=C(c1ccccc1)C(C)N2` (centres unmarked) [C6 H5, R4 = CH3], the IC50 [2] is reported as 0.51 nM and the “Mitotic Index 12h” value ([3]; 0.003 μM) is reported as 0.69.

For `CCOC(=O)Nc1cc2c(c(N)n1)N=C(c1ccc(C)c(C)c1)CN2` [3,4-(CH3)2 C 6 H3], the ILS at 12.5 mg/kg [1, 11] was 44%, the IC50 [2] was 138 nM and the “Mitotic Index 24h” value ([3]; 0.3 μM) was 0.16.

Compound `CCOC(=O)Nc1cc2c(c(N)n1)N=C(c1ccccc1)CN2` [C6 H5, Ethyl 5-Amino-1,2-dihydro-3-phenylpyrido(3,4-b)pyrazin-7-ylcarbamate] has an ILS at 12.5 mg/kg ([1]; Mus musculus, P388, ip, 24 h, i.p. implant, day 1, average of 2 determinations) of 55%, an ILS at 4.5 mg/kg ([1]; Mus musculus, P388, ip, i.p. implant, days 1,5,9, 4.5 mg/kg) of 42% and an ILS at 2 mg/kg ([1]; Mus musculus, P388, ip, i.p. implant, days 1-9, 2 mg/kg) of 51%. The IC50 [2] was 4.7 nM, the “Mitotic Index 12h” value ([3]; 0.03 μM) was 0.65 and the “Mitotic Index 24h” value ([3]; 0.3 μM) was 0.54. The “activity against P388 cells resistant to vincristine (in words)” value ([6]; in mice) was “active in mice against P388 cells that were resistant to vincristine”, the “P388 % ILS” value ([6]; vincristine-resistant line of P388, day 1, 12 mg/kg) was 50% and the antifungal activity [7] was “active”. The antifungal activity [8] was “active”, the antifungal activity [9] was “active” and the antifungal activity [10] was “active”.

In the case of `CCOC(=O)Nc1cc2c(c(N)n1)N=C(c1ccc(C(F)(F)F)cc1)CN2` [4-CF3 C6 H4, ethyl 5-amino-1,2-dihydro-3-[4'-(trifluoromethyl)phenyl]pyrido[3,4-b]pyrazin-7-ylcarbamate], the ILS at 90 mg/kg ([1]; Mus musculus, P388, ip, 24 h, i.p. implant, day 1, 90 mg/kg (highest dose tested)) is reported as 0%, the ILS at 30 mg/kg ([1]; Mus musculus, P388, ip, i.p. implant, days 1,5,9, 30 mg/kg (highest dose tested)) is reported as 0% and the ILS at 50 mg/kg [1, 13] is reported as 17%. The IC50 [2] was 150 nM and the “Mitotic Index 24h” value ([3]; 0.3 μM) was 0.01.

In the case of `CCOC(=O)Nc1cc2c(c(N)n1)N=C(c1ccc(Cl)c(Cl)c1)CN2` [3,4-Cl2 C6 H3], the ILS at 10 mg/kg [1, 14] is reported as 58%, the IC50 [2] is reported as 18 nM and the “Mitotic Index 12h” value ([3]; 0.01 μM) is reported as 0.69. The “Mitotic Index 12h” value ([3]; 0.03 μM) was 0.53.

For `COC(=O)Nc1nc2ccc(C(=O)c3cccs3)cc2[nH]1` [Nocodazole, reference compound], the IC50 [2] was 27 nM and the “Mitotic Index 24h” value ([3]; 0.3 μM) was 0.19.

In the case of `CCOC(=O)Nc1cc2c(c(N)n1)N=C(c1ccc3ccccc3c1)CN2` [2-C10 H7], the ILS at 5 mg/kg ([1]; Mus musculus, P388, ip, i.p. implant, days 1-5, 5 mg/kg) is reported as 53%, the ILS at 10 mg/kg [1, 14] is reported as 66% and the 30th-day survivor ([1]; days 1-5, 10 mg/kg) is reported as “One”. The IC50 [2] was 6 nM and the “Mitotic Index 12h” value ([3]; 0.03 μM) was 0.60.
